Legend:
Format in all cases: functional
[1] = system: KM12; assay: Cytotoxicity against Homo sapiens (human) KM12 cells after 48 hr by SRB assay; settings: KM12, 48 h
[2] = system: M14; assay: Cytotoxicity against Homo sapiens (human) M14 cells after 48 hr by SRB assay; settings: M14, 48 h
[3] = Cytotoxicity against Homo sapiens (human) NCI-H322 cells after 48 hr by SRB assay; settings: NCI-H322, 48 h
[4] = Cytotoxicity against Homo sapiens (human) ovarian cancer cells after 48 hr by SRB assay; settings: Cancer cell lines
[5] = system: BT-549; assay: Cytotoxicity against Homo sapiens (human) BT549 cells after 48 hr by SRB assay; settings: BT-549, 48 h
[6] = Cytotoxicity against Homo sapiens (human) melanoma cells after 48 hr by SRB assay; settings: Melanoma cell
[7] = system: OVCAR-3; assay: Cytotoxicity against Homo sapiens (human) OVCAR3 cells after 48 hr by SRB assay; settings: OVCAR-3, 48 h
[8] = system: RPMI-8226; assay: Cytotoxicity against Homo sapiens (human) RPMI8226 cells after 48 hr by SRB assay; settings: RPMI-8226, 48 h
[9] = system: SK-MEL-5; assay: Cytotoxicity against Homo sapiens (human) SK-MEL-5 cells after 48 hr by SRB assay; settings: SK-MEL-5, 48 h
[10] = system: SNB-19; assay: Cytotoxicity against Homo sapiens (human) SNB19 cells after 48 hr by SRB assay; settings: SNB-19, 48 h
[11] = Cytotoxicity against Homo sapiens (human) leukemia cells after 48 hr by SRB assay; settings: Leukemia cell
[12] = system: NCI-H23; assay: Cytotoxicity against Homo sapiens (human) NCI-H23 cells after 48 hr by SRB assay; settings: NCI-H23, 48 h
[13] = system: PC-3; assay: Cytotoxicity against Homo sapiens (human) PC3 cells after 48 hr by SRB assay; settings: PC-3, 48 h
[14] = system: IGROV-1; assay: Cytotoxicity against Homo sapiens (human) IGROV1 cells after 48 hr by SRB assay; settings: IGROV-1, 48 h
[15] = system: SN12C; assay: Cytotoxicity against Homo sapiens (human) SN12C cells after 48 hr by SRB assay
[16] = system: MCF7; assay: Cytotoxicity against Homo sapiens (human) MCF7 cells assessed as cellular growth after 48 hr by Alamar blue assay; parameters: concentration or dose not given beside the values
[17] = system: HCT-15; assay: Cytotoxicity against Homo sapiens (human) HCT15 cells after 48 hr by SRB assay; settings: HCT-15, 48 h
[18] = system: MCF7; assay: Cytotoxicity against Homo sapiens (human) MCF7 cells after 48 hr by SRB assay; settings: MCF7, 48 h
[19] = system: SF-295; assay: Cytotoxicity against Homo sapiens (human) SF295 cells after 48 hr by SRB assay; settings: SF-295, 48 h
[20] = system: Hs-578T; assay: Cytotoxicity against Homo sapiens (human) Hs578T cells after 48 hr by SRB assay
[21] = Cytotoxicity against Homo sapiens (human) colon cancer cells after 48 hr by SRB assay; settings: Cancer cell lines
[22] = system: NCI-H522; assay: Cytotoxicity against Homo sapiens (human) NCI-H522 cells after 48 hr by SRB assay; settings: NCI-H522, 48 h
[23] = system: EKVX; assay: Cytotoxicity against Homo sapiens (human) EKVX cells after 48 hr by SRB assay
[24] = system: HOP-62; assay: Cytotoxicity against Homo sapiens (human) HOP62 cells after 48 hr by SRB assay; settings: HOP-62, 48 h
[25] = system: SK-OV-3; assay: Cytotoxicity against Homo sapiens (human) SKOV3 cells after 48 hr by SRB assay; settings: SK-OV-3, 48 h
[26] = system: HOP-92; assay: Cytotoxicity against Homo sapiens (human) HOP92 cells after 48 hr by SRB assay; settings: HOP-92, 48 h
[27] = system: MOLT-4; assay: Cytotoxicity against Homo sapiens (human) MOLT4 cells after 48 hr by SRB assay; settings: MOLT-4, 48 h
[28] = system: SF-268; assay: Cytotoxicity against Homo sapiens (human) SF268 cells assessed as cellular growth after 48 hr by Alamar blue assay; parameters: concentration or dose not given beside the values
[29] = system: OVCAR-4; assay: Cytotoxicity against Homo sapiens (human) OVCAR4 cells after 48 hr by SRB assay; settings: OVCAR-4, 48 h
[30] = system: COLO 205; assay: Cytotoxicity against Homo sapiens (human) COLO205 cells after 48 hr by SRB assay; settings: COLO 205, 48 h
[31] = system: UO-31; assay: Cytotoxicity against Homo sapiens (human) UO31 cells after 48 hr by SRB assay; settings: UO-31, 48 h
[32] = Cytotoxicity against Homo sapiens (human) NCI-ADR-RES cells after 48 hr by SRB assay
[33] = system: UACC-62; assay: Cytotoxicity against Homo sapiens (human) UACC62 cells after 48 hr by SRB assay; settings: UACC-62, 48 h
[34] = Cytotoxicity against Homo sapiens (human) breast cancer cells after 48 hr by SRB assay; settings: Cancer cell lines
[35] = Cytotoxicity against Homo sapiens (human) renal cancer cells after 48 hr by SRB assay; settings: Cancer cell lines
[36] = system: T47D; assay: Cytotoxicity against Homo sapiens (human) T47D cells after 48 hr by SRB assay
[37] = system: MDA-MB-231; assay: Cytotoxicity against Homo sapiens (human) MDA-MB-231 cells after 48 hr by SRB assay; settings: MDA-MB-231, 48 h
[38] = Cytotoxicity against Homo sapiens (human) CNS cancer cells after 48 hr by SRB assay; settings: Cancer cell lines
[39] = system: 786-0; assay: Cytotoxicity against Homo sapiens (human) 786-0 cells after 48 hr by SRB assay; settings: 786-0, 48 h
[40] = system: A549; assay: Cytotoxicity against Homo sapiens (human) A549 cells after 48 hr by SRB assay; settings: A549, 48 h
[41] = system: CAKI-1; assay: Cytotoxicity against Homo sapiens (human) Caki1 cells after 48 hr by SRB assay; settings: CAKI-1, 48 h
[42] = system: RXF 393; assay: Cytotoxicity against Homo sapiens (human) RXF393 cells after 48 hr by SRB assay; settings: RXF 393, 48 h
[43] = system: SW-620; assay: Cytotoxicity against Homo sapiens (human) SW620 cells after 48 hr by SRB assay; settings: SW-620, 48 h
[44] = system: OVCAR-5; assay: Cytotoxicity against Homo sapiens (human) OVCAR5 cells after 48 hr by SRB assay; settings: OVCAR-5, 48 h
[45] = system: MDA-MB-435; assay: Cytotoxicity against Homo sapiens (human) MDA-MB-435 cells after 48 hr by SRB assay; settings: MDA-MB-435, 48 h
[46] = system: U-251; assay: Cytotoxicity against Homo sapiens (human) U251 cells after 48 hr by SRB assay; settings: U-251, 48 h
[47] = system: NCI-H460; assay: Cytotoxicity against Homo sapiens (human) NCI-H460 cells assessed as cellular growth after 48 hr by Alamar blue assay; parameters: concentration or dose not given beside the values

O=C(c1ccccc1)n1c(-c2ccccc2)cs/c1=N\S(=O)(=O)c1ccc(N2N=C3c4ccccc4CC3C2c2cccs2)cc1 (stereo not drawn)
GI50 [1]: 38.3 µM | GI50 [2]: 33 µM | GI50 [3]: 22.3 µM | GI50 [4]: 72 µM | TGI [4]: > 100 µM | GI50 [5]: 69.7 µM | GI50 [6]: 51.6 µM | TGI [6]: 98.2 µM | GI50 [7]: 55.2 µM | GI50 [8]: 32.3 µM | GI50 [9]: 24.4 µM | GI50 [10]: 59.2 µM | GI50 [11]: 32.9 µM | TGI [11]: 80.3 µM | GI50 [12]: 13.1 µM | GI50 [13]: 39.2 µM | GI50 [14]: > 100 µM | GI50 [15]: 44.4 µM | Activity [16]: <=32% | GI50 [17]: 61.4 µM | GI50 [18]: > 100 µM | GI50 [19]: 37.1 µM | GI50 [20]: 17 µM | GI50 [21]: 53.3 µM | TGI [21]: 90.4 µM | GI50 [22]: 23.7 µM | GI50 [23]: 40.7 µM | GI50 [24]: 23.7 µM | GI50 [25]: > 100 µM | GI50 [26]: > 100 µM | GI50 [27]: 30.5 µM | Activity [28]: <=32% | GI50 [29]: > 100 µM | GI50 [30]: 98.1 µM | GI50 [31]: 98.1 µM | GI50 [32]: > 100 µM | GI50 [33]: 27.3 µM | GI50 [34]: 65.3 µM | TGI [34]: > 100 µM | GI50 [35]: 44.8 µM | TGI [35]: 95.3 µM | GI50 [36]: > 100 µM | GI50 [37]: 41.3 µM | GI50 [38]: 64.5 µM | TGI [38]: > 100 µM | GI50 [39]: 21.8 µM | GI50 [40]: 39.5 µM | GI50 [41]: 38 µM | GI50 [42]: 37 µM | GI50 [43]: 58.8 µM | GI50 [44]: 34.3 µM | GI50 [45]: 31.1 µM | GI50 [46]: 32 µM | Activity [47]: <=32%

O=C1CCS/C(=N\S(=O)(=O)c2ccc(N3N=C4c5ccccc5CC4C3c3cccs3)cc2)N1C(=O)c1ccccc1 (stereo not drawn)
GI50 [1]: 29.4 µM | GI50 [2]: 10.8 µM | GI50 [3]: 32.5 µM | GI50 [4]: 36.9 µM | TGI [4]: 42.1 µM | GI50 [5]: 4.77 µM | GI50 [6]: 15.3 µM | TGI [6]: 21.2 µM | GI50 [7]: 27.4 µM | GI50 [8]: 58.6 µM | GI50 [9]: 2.56 µM | GI50 [10]: 45.7 µM | GI50 [11]: 37.6 µM | TGI [11]: 80.1 µM | GI50 [12]: 17.2 µM | GI50 [13]: 29.2 µM | GI50 [14]: 14.5 µM | GI50 [15]: 16.7 µM | Activity [16]: <=32% | GI50 [17]: 15.1 µM | GI50 [18]: 9.1 µM | GI50 [19]: 32.7 µM | GI50 [20]: 2.85 µM | GI50 [21]: 27.4 µM | TGI [21]: 52.6 µM | GI50 [22]: 14.4 µM | GI50 [23]: 22.1 µM | GI50 [24]: 31.1 µM | GI50 [25]: 52.8 µM | GI50 [26]: 25.4 µM | GI50 [27]: 50.4 µM | Activity [28]: <=32% | GI50 [29]: > 100 µM | GI50 [30]: 66.5 µM | GI50 [31]: 30.7 µM | GI50 [32]: 32.9 µM | GI50 [33]: 6.37 µM | GI50 [34]: 25.4 µM | TGI [34]: 73.5 µM | GI50 [35]: 17.7 µM | TGI [35]: 38.1 µM | GI50 [36]: > 100 µM | GI50 [37]: 5.77 µM | GI50 [38]: 36.7 µM | TGI [38]: 68.2 µM | GI50 [39]: 14.1 µM | GI50 [40]: 10.6 µM | GI50 [41]: 26.8 µM | GI50 [42]: 6.31 µM | GI50 [43]: 13.1 µM | GI50 [44]: 25.8 µM | GI50 [45]: 22.7 µM | GI50 [46]: 4.5 µM | Activity [47]: <=32%

— ChEMBL document CHEMBL3046832, “Synthesis of some sulfonamides, disubstituted sulfonylureas or thioureas and some structurally related variants. A class of promising antitumor agents” (2007)
